The values that follow come from PMC9445081, “Structural basis for recognition of N-formyl peptides as pathogen-associated molecular patterns” (Nature Communications, 2022).

Changes are numbered by the printed parent chain. pEC50: −log10 of the molar value.

Holding throughout (type): cell-based
The target of test [1] is T1, FPR1 WT (Homo sapiens, UniProt P21462).
T1 construct: expressed in transfected cells; host or cells: HeLa cells, transient, pcDNA3.1(+)
T1 sequence (P21462 1-350): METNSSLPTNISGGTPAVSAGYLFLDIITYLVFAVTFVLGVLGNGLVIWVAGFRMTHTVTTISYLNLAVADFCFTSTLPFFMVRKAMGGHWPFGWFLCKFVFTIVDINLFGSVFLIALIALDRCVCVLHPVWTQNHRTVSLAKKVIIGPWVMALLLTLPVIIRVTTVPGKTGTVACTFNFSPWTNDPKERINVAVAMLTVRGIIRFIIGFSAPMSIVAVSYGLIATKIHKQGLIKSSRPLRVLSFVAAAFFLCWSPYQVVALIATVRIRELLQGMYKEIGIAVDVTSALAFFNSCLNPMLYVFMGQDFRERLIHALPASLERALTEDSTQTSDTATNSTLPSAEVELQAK
Description: cAMP inhibition assay, WT FPR1. The text has this:
(§1) FPR1 cDNA in the pcDNA3.1(+) vector (Invitrogen) was used as a template for gene manipulation. The mutations of FPR1 were introduced in the receptor through overlap extension PCR with elaborately designed primers (GENEWIZ, Suzhou, China). The sequences of the primers were listed in Supplementary Table 2. Two fragments of FPR1 (separated at mutated positions) were assembled into pre-cut pcDNA3.1(+) vectors with the ClonExpress Ultra One Step Cloning Kit (Vazyme Biotech, C115). Plasmids with FPR1 mutations were confirmed by DNA sequencing (GENEWIZ).
(§2) For functional studies, FPR1 and its mutants were expressed in HeLa cells as above. The cells were resuspended in HBSS buffer plus 5 mM HEPES, 0.1% BSA (w/v) and 0.5 mM 3-isobutyl-1-methylxanthine and seeded into 384-well plates. […] AG-14 was synthesized by Sungening Biotechnology (Shenzhen, China). […] Intracellular cAMP levels were measured with the LANCE Ultra cAMP kit (PerkinElmer, TRF0263) following the manufacturer’s instructions. […] Intracellular cAMP levels were calculated according to the TR-FRET signals of the samples and cAMP standards.
(§3) The data were analyzed with Prism 6.0 (GraphPad, San Diego, CA). […] For cell surface expression, data points were presented as the percentages (mean ± SEM) of the flow cytometry fluorescence signals of WT FPR1. […]

Test [2] concerns the target T2, FPR1 R201A (Homo sapiens, UniProt P21462, R201A).
T2 construct: expressed in transfected cells; host or cells: HeLa cells, transient, pcDNA3.1(+)
T2 sequence (P21462 1-350 R201A): T1 sequence (P21462 1-350) with R201A
Nature of the test: cAMP inhibition assay, FPR1 R201A.
Description: as §1, §2, §3

Test [3] deals with T3, FPR1 R205A (Homo sapiens, UniProt P21462, R205A).
T3 construct: expressed in transfected cells; host or cells: HeLa cells, transient, pcDNA3.1(+)
T3 sequence (P21462 1-350 R205A): T1 sequence (P21462 1-350) with R205A
Description: cAMP inhibition assay, FPR1 R205A.
Description: as §1
as §2, with “China). Different concentrations of the ligands were prepared plus a fixed dose of forskolin with the buffer above.” for “China).”
(§4) The data were analyzed with Prism 6.0 (GraphPad, San Diego, CA). For dose-response analysis, the curves were plotted with the log[agonist] vs. response equation (three parameters) in the software. Data points were presented as the percentages (mean ± SEM) of the maximal cAMP level for each construct, from at least three independent experiments, as indicated in figure legends. The pEC50 values were the negative logarithm of the EC50 values, which were obtained from the dose-response curves. For cell surface expression, data points were presented as the percentages (mean ± SEM) of the flow cytometry fluorescence signals of WT FPR1. For statistical comparison, a p-value of 0.05 or lower is considered statistically significant.

For test [4], the target named is T4, FPR1 F291A (Homo sapiens, UniProt P21462, F291A).
T4 construct: expressed in transfected cells; host or cells: HeLa cells, transient, pcDNA3.1(+)
T4 sequence (P21462 1-350 F291A): T1 sequence (P21462 1-350) with F291A
Description: cAMP inhibition assay, FPR1 F291A.
Description: as §1
as §2, with “China). Different concentrations of the ligands were prepared plus a fixed dose of forskolin with the buffer above.” for “China).”
as §4

Test [5] concerns the target T5, FPR1 R84A (Homo sapiens, UniProt P21462, R84A).
T5 construct: expressed in transfected cells; host or cells: HeLa cells, transient, pcDNA3.1(+)
T5 sequence (P21462 1-350 R84A): T1 sequence (P21462 1-350) with R84A
Description: cAMP inhibition assay, FPR1 R84A. The conditions noted are these: inhibiting forskolin-elevated cAMP, HeLa cells, read-out: pEC50, mean ± SEM (converted).
Description: as §1
as §2, with “China). Different concentrations of the ligands were prepared plus a fixed dose of forskolin with the buffer above.” for “China).”
as §4

Test [6] addresses T6, FPR1 W254A (Homo sapiens, UniProt P21462, W254A).
T6 construct: expressed in transfected cells; host or cells: HeLa cells, transient, pcDNA3.1(+)
T6 sequence (P21462 1-350 W254A): T1 sequence (P21462 1-350) with W254A
Nature of the test: cAMP inhibition assay, FPR1 W254A. The conditions noted are these: inhibiting forskolin-elevated cAMP, HeLa cells, read-out: pEC50, mean ± SEM (converted).
Description: as §1, §2, §3

Test [7] concerns the target T7, FPR1 Y257A (Homo sapiens, UniProt P21462, Y257A).
T7 construct: expressed in transfected cells; host or cells: HeLa cells, transient, pcDNA3.1(+)
T7 sequence (P21462 1-350 Y257A): T1 sequence (P21462 1-350) with Y257A
Nature of the test: cAMP inhibition assay, FPR1 Y257A. The conditions noted are these: inhibiting forskolin-elevated cAMP, HeLa cells, read-out: pEC50, mean ± SEM (converted).
Description: as §1, §2, §3

For `COc1cc(/C=N/NC(=O)c2ccc3c(c2)OCO3)ccc1OCc1ccccc1` [AG-14], the pEC50 (in general, −log10 of the EC50, conventionally taken in molar units) in test [1] is 6.40; in test [2], 5.80; in test [3], 6.00; in test [4] it was 5.70. The EC50 in test [5] was 1.26 µM; in test [6] it was 5.01 µM; in test [7] it was 2.51 µM.
